Source: patent publication US20160235807A1, “AGONISTS OF GUANYLATE CYCLASE USEFUL FOR DOWNREGULATION OF PRO-INFLAMMATORY CYTOKINES” (SYNERGY PHARMACEUTICALS, INC., priority 2013, published 2016)
Bridge positions count the residues as written; N and C are the ends. Square brackets hold non-standard residues; d marks the D form. Peptide text beside a SMILES is read from it.

Key:
[1] = test system: DSS-induced colitis; test: DSS-induced colitis in BDF-1 mice; assay type: in vivo, mouse
Description: To evaluate the efficacy of plecanatide in DSS induced colitis model, 48 BDF-1 mice were divided into 8 treatment groups (6 mice/group). One group was not exposed to DSS (untreated control) and groups 2-8 were treated with 5% DSS in the drinking water on day 0. Plecanatide or SP-333 solutions formulated in 0.1M phosphate buffer (pH 7) was administered by oral gavage, once a day at 0.005, 0.05, 0.5, 2.5 and 5 mg/kg, from study day −1 (i.e. prior to initiation of DSS treatment) through day 6 for SP-333 or day 7 for plecanatide. DSS treatment was initiated on day 0 for groups 2-8 until the end of the study. Sulfasalazine (80 mg/kg) or 5-ASA (100 mg/kg) was used as positive control and was administered daily. Mice were sacrificed on day 7. The large intestine was removed and weighed. Distal section of the large intestine was collected and fixed as described above.
Disease activity index (DAI) was calculated by scoring in-life parameters starting from day −1 until the end of the study. Once daily, all mice were weighed and assessed for stool consistency, and the presence of overt blood in the stool or around the anus essentially similar to that reported earlier. Colitis severity was assessed by histopathological analyses of H&E stained tissue sections (Hegazi et al., 2005; Dave et al., 2009) employing the following criteria: (score 0) normal appearing crypts; (score 1) abnormal crypt pathology without ulceration; (score 2) depleted crypts with ulceration; (score 3) 20-50% depleted crypts and increased ulceration; (score 4) >50% depleted crypts with substantial ulceration and (score 5) totally ulcerated/inflamed colon with no crypts remaining. All slides were scored in a blinded manner. Colitis severity in TCRα−/− model was scored as previously described^25. All slides were scored in a blinded manner. Disease activity index (DAI) was calculated by assessing body weight, stool consistency, and the presence of overt blood in stools or around the anus, essentially similar to that reported earlier (Hamamoto et al., 1999).

[2] = test system: T84 cells; test: Quantitative RT-PCR for transcripts in T84 cells; assay type: cell-based, human
Description: T-84 cells (˜10^7 cells) were treated with 1 μM SP-333 for 5 h. Subsequently, cDNA was prepared from total RNA using High Capacity RNA-to-cDNA Kit (Applied Biosystems, Carlsbad, Calif.) according to manufacturer's instructions. Quantitative Real-Time PCR amplification and analysis were carried out using Lightcycler 480 (Roche, Basel Switzerland), p65 and IKK-13 specific Taqman gene expression assays and Lightcycler 480 Probe master. All amplification assays were performed in duplicate employing 20 ng cDNA (based on input RNA). The total reaction volume was adjusted to 20 μL with appropriate amounts of TaqMan gene expression assays, Lightcycler 480 probe master and distilled water, then subjected to 45 PCR cycles using default cycling parameters. GAPDH transcript was used as endogenous control. The data generated were analyzed and expressed as target gene expression relative to endogenous control using comparative Cp method and 2^−ΔΔCp formula (comparative Cp values and advanced quantitative relative quantification method). TaqMan reagents were obtained from Applied Biosystems (Carlsbad, Calif.).
T-84 cells were treated with 1 μM SP-333 for 5 hours. Subsequently, cDNA was prepared from total RNA and subjected to quantitative Real-Time PCR using TaqMan reagents from Applied Biosystems.

[3] = SP-333 0.005 to 5 mg/kg oral daily, vs DSS alone or DSS plus vehicle
[4] = SP-333 1 μM, 5 h, compared to unstimulated T84 cells, FIG. 3D
[5] = T84 cells, compared to untreated cells, FIG. 16

For `CC(C)C[C@@H]1NC(=O)[C@H](CCC(=O)O)NC(=O)[C@@H](NC(=O)[C@H](CCC(=O)O)NC(=O)[C@H](CC(=O)O)NC(=O)[C@H](N)CC(N)=O)CSSC[C@@H]2NC(=O)[C@H](C)NC(=O)[C@H](C(C)C)NC(=O)[C@H](CC(N)=O)NC(=O)[C@H](C(C)C)NC(=O)[C@H](CSSC[C@@H](C(=O)N[C@H](CC(C)C)C(=O)O)NC(=O)CNC(=O)[C@H]([C@@H](C)O)NC2=O)NC1=O` [SP-333, dAsn^1-Asp^2-Glu^3-Cys^4-Glu^5-Leu^6-Cys^7-Val^8-Asn^9-Val^10-Ala^11-Cys^12-Thr^13-Gly^14-Cys^15-dLeu^16] (H-[dN]DECELCVNVACTGC[dL]-OH; disulfide 4-12, 7-15; N-terminus and C-terminus assumed), the histopathology score ([1]; DSS+SP-333 0.005 mg/kg, representative image FIG. 10C (DSS alone 4)) was 1, the histopathology score ([1]; DSS+SP-333 0.05 mg/kg, representative image FIG. 10D) was 2 and the histopathology score ([1]; DSS+SP-333 0.5 mg/kg, representative image FIG. 10E) was 2. The “amelioration of colitis compared with 5-ASA” value ([1]; SP-333 0.005 mg/kg oral) was “as effective as 5-ASA (100 mg/kg)”, the DAI ([1]; SP-333 0.05 mg/kg oral, vs DSS vehicle control, p=0.041) was “significant reduction” and the “mean DAI scores” value [1, 3] was “lower”. For the same compound, the “mean scores of colitis severity” value [1, 3] was “lower”, the “histological evaluation of colon tissues (crypts)” value ([1]; SP-333 treatment groups) was “minimal loss of crypts with very low distortions in crypt morphology” and the “reduction of transcript levels of IKK-13” value [2, 4] was “approximately 50%”. The “reduction of transcript levels of p65” value [2, 4] was “approximately 50%”, the “decrease in IKKβ expression” value [2, 5] was 59% and the “decrease in p65 expression” value [2, 5] was 55%.
